Experimental data from ChEMBL document CHEMBL1201861, “Genomics of Drug Sensitity in Cancer screening data, Wellcome Trust Sanger Institute”.

What was measured:
Assay in all cases: cells
[1] = system: COLO-792; format: functional, cell-based, Homo sapiens; details: Homo sapiens, COLO-792
Description: SANGER: Inhibition of human COLO-792 cell growth in a cell viability assay.

[2] = system: COLO-829; format: functional, cell-based, Homo sapiens; details: Homo sapiens, COLO-829
Description: SANGER: Inhibition of human COLO-829 cell growth in a cell viability assay.

[3] = system: DOHH-2; format: functional, cell-based; details: Homo sapiens;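 also: growth inhibition of human DOHH-2 cells, read out with a cell viability assay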
Description: SANGER: Inhibition of human DOHH-2 cell growth in a cell viability assay.

[4] = system: DSH1; format: functional, cell-based, Homo sapiens; details: Homo sapiens, DSH1;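 also: growth inhibition of human DSH1 cells, measured with a cell viability readout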
Description: SANGER: Inhibition of human DSH1 cell growth in a cell viability assay.

[5] = system: ES7; format: functional, cell-based, Homo sapiens; details: Homo sapiens, ES7;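 also: growth inhibition of cultured human ES7 cells, read out as cell viability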
Description: SANGER: Inhibition of human ES7 cell growth in a cell viability assay.

[6] = system: EOL1; format: functional, cell-based; details: Homo sapiens;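 also: growth inhibition of EoL-1 cells, read out by a cell viability assay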
Description: SANGER: Inhibition of human EoL-1-cell cell growth in a cell viability assay.

[7] = system: GI-1; format: functional, cell-based, Homo sapiens; details: Homo sapiens, GI-1;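 also: growth inhibition of human GI-1 cells, measured with a cell viability readout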
Description: SANGER: Inhibition of human GI-1 cell growth in a cell viability assay.

[8] = system: HCC38; format: functional, cell-based, Homo sapiens; details: Homo sapiens, HCC38;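 also: cell viability assay on the human HCC38 cell line, with IC50 marking the concentration that inhibits cell growth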
Description: SANGER: Inhibition of human HCC38 cell growth in a cell viability assay.

[9] = system: HCT-116; format: functional, cell-based, Homo sapiens; details: Homo sapiens, HCT-116
Description: SANGER: Inhibition of human HCT-116 cell growth in a cell viability assay.

[10] = system: HGC-27; format: functional, cell-based, Homo sapiens; details: Homo sapiens, HGC-27;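 also: growth inhibition of human HGC-27 cells, read out in a cell viability assay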
Description: SANGER: Inhibition of human HGC-27 cell growth in a cell viability assay.

[11] = system: HN; format: functional, cell-based, Homo sapiens; details: Homo sapiens, HN
Description: SANGER: Inhibition of human HN cell growth in a cell viability assay.

[12] = system: HO-1-N-1; format: functional, cell-based, Homo sapiens; details: Homo sapiens, HO-1-N-1;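 also: growth inhibition of human HO-1-N-1 cells, read out with a cell viability assay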
Description: SANGER: Inhibition of human HO-1-N-1 cell growth in a cell viability assay.

[13] = system: HuTu80; format: functional, cell-based, Homo sapiens, HUTU-80; details: Homo sapiens, HuTu80;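 also: growth inhibition of HuTu80 human cells, determined with a cell viability readout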
Description: SANGER: Inhibition of human HUTU-80 cell growth in a cell viability assay.

[14] = system: Huh-7; format: functional, cell-based, Homo sapiens; details: Homo sapiens, Huh-7;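 also: HuH-7 cell growth inhibition, read out with a cell viability assay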
Description: SANGER: Inhibition of human HuH-7 cell growth in a cell viability assay.

[15] = system: K5; format: functional, cell-based, Homo sapiens; details: Homo sapiens, K5
Description: SANGER: Inhibition of human K5 cell growth in a cell viability assay.

[16] = system: KINGS-1; format: functional, cell-based, Homo sapiens; details: Homo sapiens, KINGS-1;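 also: cell viability assay measuring suppression of KINGS-1 cell growth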
Description: SANGER: Inhibition of human KINGS-1 cell growth in a cell viability assay.

[17] = system: KM-H2; format: functional, cell-based; details: Homo sapiens;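 also: growth inhibition of KM-H2 cells, read out by a cell viability assay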
Description: SANGER: Inhibition of human KM-H2 cell growth in a cell viability assay.

[18] = system: KU-19-19; format: functional, cell-based, Homo sapiens; details: Homo sapiens, KU-19-19
Description: SANGER: Inhibition of human KU-19-19 cell growth in a cell viability assay.

[19] = system: KYSE-410; format: functional, cell-based, Homo sapiens; details: Homo sapiens, KYSE-410;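 also: growth inhibition of KYSE-410 cells, measured through a cell viability readout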
Description: SANGER: Inhibition of human KYSE-410 cell growth in a cell viability assay.

[20] = system: LB1047-RCC; format: functional, cell-based, Homo sapiens; details: Homo sapiens, LB1047-RCC;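 also: inhibition of cell growth, determined with a cell viability assay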
Description: SANGER: Inhibition of human LB1047-RCC cell growth in a cell viability assay.

[21] = system: MFE-280; format: functional, cell-based, Homo sapiens; details: Homo sapiens, MFE-280;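 also: growth inhibition of MFE-280 cells, determined with a cell viability readout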
Description: SANGER: Inhibition of human MFE-280 cell growth in a cell viability assay.

[22] = system: MFM-223; format: functional, cell-based, Homo sapiens; details: Homo sapiens, MFM-223
Description: SANGER: Inhibition of human MFM-223 cell growth in a cell viability assay.

[23] = system: MHH-ES-1; format: functional, cell-based, Homo sapiens; details: Homo sapiens, MHH-ES-1;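 also: cell growth inhibition measured by a cell viability assay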
Description: SANGER: Inhibition of human MHH-ES-1 cell growth in a cell viability assay.

[24] = system: MKN-45; format: functional, cell-based, Homo sapiens; details: Homo sapiens, MKN-45;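 also: growth inhibition of human MKN-45 cells, measured with a cell viability assay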
Description: SANGER: Inhibition of human MKN45 cell growth in a cell viability assay.

[25] = system: MLMA; format: functional, cell-based, Homo sapiens; details: Homo sapiens, MLMA;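 also: growth inhibition of MLMA cells (human), determined through a cell viability readout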
Description: SANGER: Inhibition of human MLMA cell growth in a cell viability assay.

[26] = system: NB10; format: functional, cell-based, Homo sapiens; details: Homo sapiens, NB10;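 also: growth inhibition of NB10 cells, read out by a cell viability assay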
Description: SANGER: Inhibition of human NB10 cell growth in a cell viability assay.

[27] = system: NCI-H1650; format: functional, cell-based, Homo sapiens; details: Homo sapiens, NCI-H1650;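 also: growth inhibition of human NCI-H1650 cells measured by a cell viability assay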
Description: SANGER: Inhibition of human NCI-H1650 cell growth in a cell viability assay.

[28] = system: NCI-H1792; format: functional, cell-based, Homo sapiens; details: Homo sapiens, NCI-H1792;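 also: growth inhibition of human NCI-H1792 cells, read out as cell viability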
Description: SANGER: Inhibition of human NCI-H1792 cell growth in a cell viability assay.

[29] = system: NCI-H2347; format: functional, cell-based, Homo sapiens; details: Homo sapiens, NCI-H2347;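 also: growth inhibition of the cell line, read out with a cell viability assay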
Description: SANGER: Inhibition of human NCI-H2347 cell growth in a cell viability assay.

[30] = system: NCI-H526; format: functional, cell-based; details: Homo sapiens;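 also: growth inhibition of the human NCI-H526 cell line, measured by a cell viability assay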
Description: SANGER: Inhibition of human NCI-H526 cell growth in a cell viability assay.

[31] = system: NH-12; format: functional, cell-based, Homo sapiens; details: Homo sapiens, NH-12;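 also: growth inhibition of NH-12 cells, read out with a cell viability assay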
Description: SANGER: Inhibition of human NH-12 cell growth in a cell viability assay.

[32] = system: OE19; format: functional, cell-based, Homo sapiens; details: Homo sapiens, OE19;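 also: growth inhibition of OE19 cells, measured through a cell viability read-out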
Description: SANGER: Inhibition of human OE19 cell growth in a cell viability assay.

[33] = system: OMC-1; format: functional, cell-based, Homo sapiens; details: Homo sapiens, OMC-1;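 also: growth inhibition of the OMC-1 cell line, measured by a cell viability assay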
Description: SANGER: Inhibition of human OMC-1 cell growth in a cell viability assay.

[34] = system: OVCAR-3; format: functional, cell-based, Homo sapiens; details: Homo sapiens, OVCAR-3;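 also: growth inhibition of human OVCAR-3 cells, determined by a cell viability assay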
Description: SANGER: Inhibition of human OVCAR-3 cell growth in a cell viability assay.

[35] = system: RH-1; format: functional, cell-based, Homo sapiens; details: Homo sapiens, RH-1;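 also: growth inhibition of human RH-1 cells, read out with a cell viability assay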
Description: SANGER: Inhibition of human RH-1 cell growth in a cell viability assay.

[36] = system: SK-MEL-30; format: functional, cell-based; details: Homo sapiens;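 also: growth inhibition of SK-MEL-30 cells, determined with a cell viability assay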
Description: SANGER: Inhibition of human SK-MEL-30 cell growth in a cell viability assay.

[37] = system: SK-PN-DW; format: functional, cell-based; details: Homo sapiens;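 also: growth inhibition measured with a viability assay on these cells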
Description: SANGER: Inhibition of human SK-PN-DW cell growth in a cell viability assay.

[38] = system: SW756; format: functional, cell-based, Homo sapiens; details: Homo sapiens, SW756;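 also: growth inhibition of human SW756 cells, read out with a cell viability assay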
Description: SANGER: Inhibition of human SW756 cell growth in a cell viability assay.

[39] = system: SW 954; format: functional, cell-based, Homo sapiens; details: Homo sapiens, SW 954;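 also: growth inhibition of SW954 human cancer cells, read out as cell viability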
Description: SANGER: Inhibition of human SW954 cell growth in a cell viability assay.

[40] = system: T-24; format: functional, cell-based, Homo sapiens; details: Homo sapiens, T-24;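 also: growth inhibition of T-24 cells, read out with a cell viability assay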
Description: SANGER: Inhibition of human T-24 cell growth in a cell viability assay.

[41] = system: CWR22R; format: functional, cell-based, Homo sapiens; details: Homo sapiens, 22Rv1;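 also: growth inhibition of 22Rv1 cells, read out with a cell viability assay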
Description: SANGER: Inhibition of human 22RV1 cell growth in a cell viability assay.

[42] = system: A204; format: functional, cell-based, Homo sapiens; details: Homo sapiens, A204;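 also: growth inhibition of human A204 cells, read out with a cell viability assay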
Description: SANGER: Inhibition of human A204 cell growth in a cell viability assay.

[43] = system: ABC-1; format: functional, cell-based, Homo sapiens; details: Homo sapiens, ABC-1;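 also: growth inhibition of human ABC-1 cells, read out by a cell viability assay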
Description: SANGER: Inhibition of human ABC-1 cell growth in a cell viability assay.

[44] = system: ACN; format: functional, cell-based, Homo sapiens; details: Homo sapiens, ACN;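 also: growth inhibition of the human ACN cell line, read out via cell viability testing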
Description: SANGER: Inhibition of human ACN cell growth in a cell viability assay.

[45] = system: BB49-HNC; format: functional, cell-based, Homo sapiens; details: Homo sapiens, BB49-HNC;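 also: cell viability assay read-out, reported as inhibition of BB49-HNC cell growth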
Description: SANGER: Inhibition of human BB49-HNC cell growth in a cell viability assay.

[46] = system: BV-173; format: functional, cell-based; details: Homo sapiens
Description: SANGER: Inhibition of human BV-173 cell growth in a cell viability assay.

[47] = system: TYK-nu; format: functional, cell-based, Homo sapiens; details: Homo sapiens, TYK-nu;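 also: growth inhibition of human TYK-nu cells, read out by a cell viability assay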
Description: SANGER: Inhibition of human TYK-nu cell growth in a cell viability assay.

[48] = system: U-87 MG; format: functional, cell-based, U-87MG ATCC; details: Homo sapiens;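 also: growth inhibition of the cells measured with a viability assay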
Description: SANGER: Inhibition of human U-87-MG cell growth in a cell viability assay.

[49] = system: YAPC; format: functional, cell-based, Homo sapiens; details: Homo sapiens, YAPC;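 also: growth inhibition of YAPC cells, measured with a cell viability assay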
Description: SANGER: Inhibition of human YAPC cell growth in a cell viability assay.

[50] = system: CGTH-W-1; format: functional, cell-based, Homo sapiens; details: Homo sapiens, CGTH-W-1;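 also: growth inhibition of human CGTH-W-1 cells measured by cell viability assay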
Description: SANGER: Inhibition of human CGTH-W-1 cell growth in a cell viability assay.

[51] = system: COLO-678; format: functional, cell-based, Homo sapiens; details: Homo sapiens, COLO-678
Description: SANGER: Inhibition of human COLO-678 cell growth in a cell viability assay.

With `C=CCNC1=C2C[C@@H](C)C[C@H](OC)[C@H](O)[C@@H](C)/C=C(\C)[C@H](OC(N)=O)[C@@H](OC)/C=C\C=C(/C)C(=O)NC(=CC1=O)C2=O` [TANESPIMYCIN] the IC50 [1] was 313 nM, the IC50 [2] was 120 nM and the IC50 [3] was > 1000 nM. For the same compound, the IC50 [4] was 38.1 nM, the IC50 [5] was > 1000 nM and the IC50 [6] was 222 nM. It also gave an IC50 [7] of 146 nM, an IC50 [8] of 301 nM and an IC50 [9] of 266 nM. The IC50 [10] was 5.1 nM, the IC50 [11] was 42.7 nM and the IC50 [12] was 40.2 nM. The IC50 [13] was > 1000 nM, the IC50 [14] was > 1000 nM and the IC50 [15] was 244 nM. The IC50 [16] was 245 nM, the IC50 [17] was > 1000 nM and the IC50 [18] was > 1000 nM. For the same compound, the IC50 [19] was 47.7 nM, the IC50 [20] was 53 nM and the IC50 [21] was 213 nM. It also gave an IC50 [22] of 264 nM, an IC50 [23] of 237 nM and an IC50 [24] of 82.2 nM. For the same compound, the IC50 [25] was > 1000 nM, the IC50 [26] was > 1 µM and the IC50 [27] was 201 nM. For the same compound, the IC50 [28] was 96.2 nM, the IC50 [29] was 148 nM and the IC50 [30] was > 1000 nM. For the same compound, the IC50 [31] was > 1000 nM, the IC50 [32] was 30.8 nM and the IC50 [33] was 118 nM. For the same compound, the IC50 [34] was 593 nM, the IC50 [35] was > 1000 nM and the IC50 [36] was 912 nM. The IC50 [37] was > 1000 nM, the IC50 [38] was 442 nM and the IC50 [39] was 292 nM. The IC50 [40] was 332 nM, the IC50 [41] was > 1000 nM and the IC50 [42] was 22.5 nM. For the same compound, the IC50 [43] was > 1000 nM, the IC50 [44] was 41.6 nM and the IC50 [45] was 42.4 nM. For the same compound, the IC50 [46] was 687 nM, the IC50 [47] was 39.9 nM and the IC50 [48] was 103 nM. The IC50 [49] was 451 nM, the IC50 [50] was 23.5 nM and the IC50 [51] was 240 nM.
For `Cn1cncc1[C@@](N)(c1ccc(Cl)cc1)c1ccc2c(c1)c(-c1cccc(Cl)c1)cc(=O)n2C` [TIPIFARNIB], the IC50 [1] was 12200 nM, the IC50 [2] was 12600 nM and the IC50 [3] was 7910 nM. The IC50 [4] was 8530 nM, the IC50 [5] was 1470 nM and the IC50 [6] was 6710 nM. The IC50 [7] was 4420 nM, the IC50 [8] was 6100 nM and the IC50 [9] was 4880 nM. For the same compound, the IC50 [10] was 1320 nM, the IC50 [11] was > 16000 nM and the IC50 [12] was 10500 nM. The IC50 [13] was 285 nM, the IC50 [14] was 6050 nM and the IC50 [15] was > 16000 nM. For the same compound, the IC50 [16] was > 16000 nM, the IC50 [17] was > 16000 nM and the IC50 [18] was > 16000 nM. The IC50 [19] was 3500 nM, the IC50 [20] was > 16000 nM and the IC50 [21] was > 16000 nM. The IC50 [22] was > 16000 nM, the IC50 [23] was 5270 nM and the IC50 [24] was 2790 nM. The IC50 [25] was > 16000 nM, the IC50 [26] was 11.7 µM and the IC50 [27] was > 16000 nM. For the same compound, the IC50 [28] was > 16000 nM, the IC50 [29] was > 16000 nM and the IC50 [30] was > 16000 nM. The IC50 [31] was 5590 nM, the IC50 [32] was 5750 nM and the IC50 [33] was 6490 nM. For the same compound, the IC50 [34] was > 16000 nM, the IC50 [35] was 2750 nM and the IC50 [36] was 3740 nM. It also gave an IC50 [37] of 15500 nM, an IC50 [38] of 13600 nM and an IC50 [39] of 2900 nM. It also gave an IC50 [40] of 13900 nM, an IC50 [41] of 3220 nM and an IC50 [42] of 3580 nM. It also gave an IC50 [43] of 3210 nM, an IC50 [44] of 1460 nM and an IC50 [45] of 5860 nM. For the same compound, the IC50 [46] was 2380 nM, the IC50 [47] was > 16000 nM and the IC50 [48] was > 16000 nM. The IC50 [49] was > 16000 nM, the IC50 [50] was 5010 nM and the IC50 [51] was > 16000 nM.
In the case of `CCC1=C[C@@H]2CN(C1)Cc1c([nH]c3ccccc13)[C@@](C(=O)OC)(c1cc3c(cc1OC)N(C)[C@H]1[C@@](O)(C(=O)OC)[C@H](OC(C)=O)[C@]4(CC)C=CCN5CC[C@]31[C@@H]54)C2` [VINORELBINE], the IC50 [1] is reported as > 64 nM, the IC50 [2] is reported as 0.105 nM and the IC50 [3] is reported as 5.04 nM. The IC50 [4] was 4.87 nM, the IC50 [5] was 3.86 nM and the IC50 [6] was 9.09 nM. The IC50 [7] was 3.54 nM, the IC50 [8] was 4.87 nM and the IC50 [9] was 3.37 nM. The IC50 [10] was 1.85 nM, the IC50 [11] was > 64 nM and the IC50 [12] was 6.65 nM. It also gave an IC50 [13] of 2.18 nM, an IC50 [14] of 29.6 nM and an IC50 [15] of 41.9 nM. For the same compound, the IC50 [16] was > 64 nM, the IC50 [17] was 9.11 nM and the IC50 [18] was > 64 nM. The IC50 [19] was 6.21 nM, the IC50 [20] was > 64 nM and the IC50 [21] was > 64 nM. For the same compound, the IC50 [22] was > 64 nM, the IC50 [23] was 3.89 nM and the IC50 [24] was 2.29 nM. The IC50 [25] was 36.9 nM, the IC50 [26] was > 0.064 µM and the IC50 [27] was 40.7 nM. The IC50 [28] was > 64 nM, the IC50 [29] was 26.1 nM and the IC50 [30] was 8.68 nM. The IC50 [31] was 27 nM, the IC50 [32] was 13.2 nM and the IC50 [33] was > 64 nM. The IC50 [34] was 6.21 nM, the IC50 [35] was 11 nM and the IC50 [36] was 12.4 nM. The IC50 [37] was 12.5 nM, the IC50 [38] was > 64 nM and the IC50 [39] was 5.98 nM. For the same compound, the IC50 [40] was > 64 nM, the IC50 [41] was 8.79 nM and the IC50 [42] was 3.21 nM. The IC50 [43] was 3.02 nM, the IC50 [44] was 1.33 nM and the IC50 [45] was > 64 nM. The IC50 [46] was 30.4 nM, the IC50 [47] was > 64 nM and the IC50 [48] was 27.1 nM. The IC50 [49] was > 64 nM, the IC50 [50] was 0.232 nM and the IC50 [51] was > 64 nM.
